# Experimental data taken from patent US20100240683A1, “COMBINATION THERAPY, COMPOSITION AND METHODS FOR THE TREATMENT OF CARDIOVASCULAR DISORDERS” (Syndromex Ltd., priority 2007, published 2010).
# Experiments:
# [1] = molecular target: CYP2C19 (Homo sapiens, UniProt P33261); test: in vitro
# [2] = molecular target: T1, CYP2B6 (Homo sapiens, UniProt P20813); test: in vitro
# T1 sequence (P20813 1-491): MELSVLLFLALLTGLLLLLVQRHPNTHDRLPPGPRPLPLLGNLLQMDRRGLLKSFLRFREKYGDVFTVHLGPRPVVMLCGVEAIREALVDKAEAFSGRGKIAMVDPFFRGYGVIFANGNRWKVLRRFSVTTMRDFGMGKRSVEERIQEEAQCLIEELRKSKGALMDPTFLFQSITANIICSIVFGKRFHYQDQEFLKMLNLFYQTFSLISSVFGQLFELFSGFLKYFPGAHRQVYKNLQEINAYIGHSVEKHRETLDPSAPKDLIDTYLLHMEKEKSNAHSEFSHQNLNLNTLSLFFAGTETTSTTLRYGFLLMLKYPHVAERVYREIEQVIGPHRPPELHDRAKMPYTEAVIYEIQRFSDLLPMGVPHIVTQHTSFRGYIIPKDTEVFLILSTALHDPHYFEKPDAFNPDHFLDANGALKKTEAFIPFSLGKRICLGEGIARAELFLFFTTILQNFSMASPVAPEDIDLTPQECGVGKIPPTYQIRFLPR
# [3] = molecular target: CYP2D6 (Homo sapiens, UniProt P10635); test: Fluorimetric CYP inhibition assay, CYP2D6-AMMC
# [4] = molecular target: T2, CYP1A2 (Homo sapiens, UniProt P05177); test: in vitro
# T2 sequence (P05177 1-516): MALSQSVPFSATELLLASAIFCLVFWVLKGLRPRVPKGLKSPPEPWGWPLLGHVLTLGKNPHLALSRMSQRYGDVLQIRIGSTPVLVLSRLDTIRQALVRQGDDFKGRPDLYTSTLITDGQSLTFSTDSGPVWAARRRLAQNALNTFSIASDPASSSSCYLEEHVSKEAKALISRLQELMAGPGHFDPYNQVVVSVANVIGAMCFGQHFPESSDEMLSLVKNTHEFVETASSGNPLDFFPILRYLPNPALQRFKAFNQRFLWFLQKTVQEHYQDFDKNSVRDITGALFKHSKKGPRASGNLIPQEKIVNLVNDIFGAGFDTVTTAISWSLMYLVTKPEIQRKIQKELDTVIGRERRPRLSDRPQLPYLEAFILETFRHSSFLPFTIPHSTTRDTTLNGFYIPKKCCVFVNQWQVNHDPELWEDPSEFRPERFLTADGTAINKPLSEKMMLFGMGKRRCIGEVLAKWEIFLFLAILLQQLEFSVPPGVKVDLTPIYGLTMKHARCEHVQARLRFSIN
# [5] = molecular target: T3, CYP2C8 (Homo sapiens, UniProt P10632); test: in vitro
# T3 sequence (P10632 1-490): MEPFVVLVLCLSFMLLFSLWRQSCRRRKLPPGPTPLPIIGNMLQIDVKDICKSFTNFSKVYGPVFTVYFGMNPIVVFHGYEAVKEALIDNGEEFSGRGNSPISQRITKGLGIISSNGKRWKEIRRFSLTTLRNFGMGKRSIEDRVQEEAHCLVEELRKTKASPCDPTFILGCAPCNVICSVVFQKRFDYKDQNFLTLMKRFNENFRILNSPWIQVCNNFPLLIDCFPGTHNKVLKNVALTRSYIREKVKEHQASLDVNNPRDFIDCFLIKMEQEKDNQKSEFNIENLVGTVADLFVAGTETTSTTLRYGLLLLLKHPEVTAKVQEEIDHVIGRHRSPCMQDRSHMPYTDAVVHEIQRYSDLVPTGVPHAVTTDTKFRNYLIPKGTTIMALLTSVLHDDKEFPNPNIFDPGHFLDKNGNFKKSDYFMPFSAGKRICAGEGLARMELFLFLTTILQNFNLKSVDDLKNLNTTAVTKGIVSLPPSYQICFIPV
# [6] = molecular target: CYP2C9 (Homo sapiens, UniProt P11712); test: Fluorimetric CYP inhibition assay, CYP2C9-MFC
# [7] = molecular target: T4, CYP3A4 (Homo sapiens, UniProt P08684); test: Fluorimetric CYP inhibition assay, CYP3A4 (substrates BFC, BQ, DBF)
# [8] = molecular target: T4, CYP3A4; test: in vitro
# [9] = test system: healthy male volunteers; test: Evaluation of safety clinical and laboratory parameters in healthy male volunteers; type: in vivo, human; conditions: 1 to 4 weeks, varying doses, during treatment and one month after
# Procedure: Fifteen healthy male volunteers aged 25-52 were treated for periods ranging from 1 to 4 weeks with varying doses of M16ββ.
# T4 sequence (P08684 whole entry): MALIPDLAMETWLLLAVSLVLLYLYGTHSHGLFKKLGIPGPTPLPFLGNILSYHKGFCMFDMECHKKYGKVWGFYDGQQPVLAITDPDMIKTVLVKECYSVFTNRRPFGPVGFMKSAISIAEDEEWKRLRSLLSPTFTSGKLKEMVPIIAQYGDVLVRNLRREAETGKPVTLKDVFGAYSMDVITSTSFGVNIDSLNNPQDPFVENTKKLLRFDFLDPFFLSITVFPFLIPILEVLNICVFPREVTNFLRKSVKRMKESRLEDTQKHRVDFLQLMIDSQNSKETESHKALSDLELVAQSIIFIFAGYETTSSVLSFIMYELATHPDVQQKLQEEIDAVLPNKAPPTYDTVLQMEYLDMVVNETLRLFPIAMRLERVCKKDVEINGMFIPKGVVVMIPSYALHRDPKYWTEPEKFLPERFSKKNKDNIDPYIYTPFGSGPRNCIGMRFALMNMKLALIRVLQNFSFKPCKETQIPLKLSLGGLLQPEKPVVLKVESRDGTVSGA
# Chain of CYP2C19 (P33261 whole entry): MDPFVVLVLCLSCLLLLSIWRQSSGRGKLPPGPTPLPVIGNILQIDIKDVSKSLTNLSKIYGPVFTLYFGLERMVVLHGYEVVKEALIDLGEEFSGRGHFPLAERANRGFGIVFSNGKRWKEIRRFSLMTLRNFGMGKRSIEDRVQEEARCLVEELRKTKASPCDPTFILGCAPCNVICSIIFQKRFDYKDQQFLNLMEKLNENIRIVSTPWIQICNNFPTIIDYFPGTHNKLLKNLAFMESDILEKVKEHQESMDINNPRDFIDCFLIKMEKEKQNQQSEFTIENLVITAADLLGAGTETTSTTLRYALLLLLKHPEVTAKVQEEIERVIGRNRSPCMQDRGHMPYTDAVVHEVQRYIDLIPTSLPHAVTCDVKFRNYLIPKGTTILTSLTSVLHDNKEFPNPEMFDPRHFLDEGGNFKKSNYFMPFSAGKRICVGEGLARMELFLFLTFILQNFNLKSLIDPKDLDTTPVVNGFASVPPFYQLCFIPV
# Chain of CYP2C9 (P11712 whole entry): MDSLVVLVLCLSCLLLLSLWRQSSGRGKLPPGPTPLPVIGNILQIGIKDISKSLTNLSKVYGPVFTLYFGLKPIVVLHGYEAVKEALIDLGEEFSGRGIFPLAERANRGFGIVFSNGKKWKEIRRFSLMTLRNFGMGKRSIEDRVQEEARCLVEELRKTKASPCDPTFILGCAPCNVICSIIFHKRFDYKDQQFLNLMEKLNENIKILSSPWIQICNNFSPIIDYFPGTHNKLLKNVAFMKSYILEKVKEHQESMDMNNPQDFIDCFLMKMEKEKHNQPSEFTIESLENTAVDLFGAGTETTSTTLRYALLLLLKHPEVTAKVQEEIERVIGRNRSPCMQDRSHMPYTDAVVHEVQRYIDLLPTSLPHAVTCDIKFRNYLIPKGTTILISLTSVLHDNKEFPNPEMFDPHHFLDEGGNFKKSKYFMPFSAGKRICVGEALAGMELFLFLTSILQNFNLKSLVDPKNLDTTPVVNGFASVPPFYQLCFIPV
# Chain of CYP2D6 (P10635 whole entry): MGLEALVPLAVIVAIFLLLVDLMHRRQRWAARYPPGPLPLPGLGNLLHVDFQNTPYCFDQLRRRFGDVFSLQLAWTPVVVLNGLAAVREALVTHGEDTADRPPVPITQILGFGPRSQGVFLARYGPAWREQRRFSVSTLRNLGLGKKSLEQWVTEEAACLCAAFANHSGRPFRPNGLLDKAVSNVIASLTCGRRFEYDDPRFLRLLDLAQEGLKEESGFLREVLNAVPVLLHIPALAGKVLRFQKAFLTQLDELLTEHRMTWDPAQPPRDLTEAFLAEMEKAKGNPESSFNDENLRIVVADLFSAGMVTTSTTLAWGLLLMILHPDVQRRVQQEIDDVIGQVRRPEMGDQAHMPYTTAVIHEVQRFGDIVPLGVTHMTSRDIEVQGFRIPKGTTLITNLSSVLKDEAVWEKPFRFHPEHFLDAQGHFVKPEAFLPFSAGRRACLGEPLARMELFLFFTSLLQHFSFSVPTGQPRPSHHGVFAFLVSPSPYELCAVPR
smiles,measurement,setting,value
"CC(C)(CCCCCCCCCCC(C)(C)CC(=O)O)CC(=O)O [M16ββ, 3,3,14,14-tetramethylhexadecane-1,16-dioic acid]",inhibition at 0.05 μM,[1]; % Inhibition (set 1),0%
same,inhibition at 0.41 μM,[1]; % Inhibition (set 1),5%
same,inhibition at 1.23 μM,[1]; % Inhibition (set 1),4%
same,inhibition at 3.7 μM,[1]; % Inhibition (set 1),0%
same,inhibition at 11.11 μM,[1]; % Inhibition (set 1),0%
same,inhibition at 33.33 μM,[1]; % Inhibition (set 1),1%
same,inhibition at 100 μM,[1]; % Inhibition (set 1),21%
same,inhibition at 0.05 μM,[1]; % Inhibition (set 2),0%
same,inhibition at 0.41 μM,[1]; % Inhibition (set 2),1%
same,inhibition at 1.23 μM,[1]; % Inhibition (set 2),0%
same,inhibition at 3.7 μM,[1]; % Inhibition (set 2),0%
same,inhibition at 11.11 μM,[1]; % Inhibition (set 2),0%
same,inhibition at 33.33 μM,[1]; % Inhibition (set 2),1%
same,inhibition at 100 μM,[1]; % Inhibition (set 2),7%
same,inhibition at 0.05 μM,[2]; % Inhibition (set 1),1%
same,inhibition at 0.41 μM,[2]; % Inhibition (set 1),1%
same,inhibition at 1.23 μM,[2]; % Inhibition (set 1),4%
same,inhibition at 3.7 μM,[2]; % Inhibition (set 1),0%
same,inhibition at 11.11 μM,[2]; % Inhibition (set 1),5%
same,inhibition at 33.33 μM,[2]; % Inhibition (set 1),7%
same,inhibition at 100 μM,[2]; % Inhibition (set 1),20%
same,inhibition at 0.05 μM,[2]; % Inhibition (set 2),0%
same,inhibition at 0.41 μM,[2]; % Inhibition (set 2),0%
same,inhibition at 1.23 μM,[2]; % Inhibition (set 2),4%
same,inhibition at 3.7 μM,[2]; % Inhibition (set 2),0%
same,inhibition at 11.11 μM,[2]; % Inhibition (set 2),6%
same,inhibition at 33.33 μM,[2]; % Inhibition (set 2),7%
same,inhibition at 100 μM,[2]; % Inhibition (set 2),19%
same,IC50,[3],> 100 µM
same,inhibition at 0.05 μM,[4]; % Inhibition (set 1),0%
same,inhibition at 0.41 μM,[4]; % Inhibition (set 1),0%
same,inhibition at 1.23 μM,[4]; % Inhibition (set 1),0%
same,inhibition at 3.7 μM,[4]; % Inhibition (set 1),0%
same,inhibition at 11.11 μM,[4]; % Inhibition (set 1),4%
same,inhibition at 33.33 μM,[4]; % Inhibition (set 1),3%
same,inhibition at 100 μM,[4]; % Inhibition (set 1),1%
same,inhibition at 0.05 μM,[4]; % Inhibition (set 2),0%
same,inhibition at 0.41 μM,[4]; % Inhibition (set 2),0%
same,inhibition at 1.23 μM,[4]; % Inhibition (set 2),0%
same,inhibition at 3.7 μM,[4]; % Inhibition (set 2),0%
same,inhibition at 11.11 μM,[4]; % Inhibition (set 2),0%
same,inhibition at 33.33 μM,[4]; % Inhibition (set 2),1%
same,inhibition at 100 μM,[4]; % Inhibition (set 2),4%
same,inhibition at 0.05 μM,[5]; % Inhibition (set 1),8%
same,inhibition at 0.41 μM,[5]; % Inhibition (set 1),7%
same,inhibition at 1.23 μM,[5]; % Inhibition (set 1),4%
same,inhibition at 3.7 μM,[5]; % Inhibition (set 1),7%
same,inhibition at 11.11 μM,[5]; % Inhibition (set 1),15%
same,inhibition at 33.33 μM,[5]; % Inhibition (set 1),22%
same,inhibition at 100 μM,[5]; % Inhibition (set 1),46%
same,inhibition at 0.05 μM,[5]; % Inhibition (set 2),0%
same,inhibition at 0.41 μM,[5]; % Inhibition (set 2),0%
same,inhibition at 1.23 μM,[5]; % Inhibition (set 2),0%
same,inhibition at 3.7 μM,[5]; % Inhibition (set 2),0%
same,inhibition at 11.11 μM,[5]; % Inhibition (set 2),9%
same,inhibition at 33.33 μM,[5]; % Inhibition (set 2),23%
same,inhibition at 100 μM,[5]; % Inhibition (set 2),46%
same,IC50,[6],> 100 µM
same,IC50,[7],> 100 µM
same,inhibition at 0.05 μM,[8]; % Inhibition (set 1),0%
same,inhibition at 0.41 μM,[8]; % Inhibition (set 1),0%
same,inhibition at 0.41 μM,[8]; % Inhibition (set 2),0%
same,inhibition at 100 μM,[8]; % Inhibition (set 2),15%
same,"drug-related changes in safety clinical (body weight, blood pressure, pulse, ECG) and laboratory (hematology, blood chemistry, urinary analysis) parameters",[9],no drug-related changes were detected
